Measurements as given in patent publication US5428042A, “1-(2H-1-oxo-3,4-dihydronaphtyl-6-yl)-acetyl-piperidines as kappa agonists” (Dr Lo Zambeletti S.p.A., priority 1990, dated 1995).
Counter-ions that a name gives are not always drawn.

Assays:
[1] = P-phenylquinone-induced abdominal writhing test in mice (analgesia, mouse writhing, graded); type: in vivo, mouse (male Charles River, Swiss Strain); settings: sc, 20 min, 20 min pretreatment, p-phenylquinone 2 mg/Kg i.p., 8 min observation
From the text: The pharmacological activity of the compounds of this invention is illustrated by the mouse writhing test, described as follows:
P-phenylquinone-induced abdominal writhing test in mice
The methodology employed is based on that described by Sigmund et al, Proc. Soc. Exptl. Biol. 95, 729/1957, modified by Milne and Twomey, Agents and Actions, 10, 31/1980.
Male Charles River mice (Swiss Strain), 25-36 g body weight, were used. Animals were allowed food and water ad libitum and were randomized into groups of 10 prior to experimentation. Test compounds were dissolved in either distilled water or distilled water plus 0.1M AMS, and administered by the subcutaneous route in a final volume of 10 ml/Kg. Control animals received 10 ml/Kg of the appropriate vehicle alone. Following a pretreatment period of 20 min., mice were injected intraperitoneally with p-phenylquinone, 2 mg/Kg at 37° C. in a final volume of 10 mg/kg. […] During this period the number of abdominal writhing responses per animal were recorded where writhing consists of an intermittent contraction of the abdomen associated with hind leg extension.
The degree of antinociceptive protection afforded by the test compound was determined as the mean number of writhing responses observed in the treated group (T) expressed as a percentage of the mean number of writhing responses in the control group (C) according to the following formula:
[1-(T/C]×100%=% graded protection

kappa brain receptor = target: T1, kappa brain receptor (Cavia porcellus, UniProt P41144); experiment: Kappa brain receptor binding (binding to kappa sites); settings: guinea pig brain homogenate, tritiated kappa selective compound, 40 min, 25° C.
T1 construct: fresh guinea pig brain homogenates; from tissue; host or cells: guinea pig whole brain without cerebellum, fresh homogenate
Experimental: Radio receptor binding to kappa site is performed on fresh guinea pig brain homogenates prepared according to Kosterlitz (1981).
Whole brain without cerebellum is homogenized in 50 mM Tris-buffer (pH 7.4 at 0° C.) and centrifuged at 49,000×g for 10 min.
The pellet is then resuspended in the same buffer, incubated at 37° C. for 45 min and centrifuged again.
1.9 ml of the final homogenate (1:100 in Tris pH 7.4, 0° C.) is used for the binding assay.
The binding to the kappa sites is performed using a tritiated kappa selective compound. Final homogenate with solutions of the cold ligand and of the labelled ligand is incubated for 40 min at 25° C., filtered through Whatman GF/C glass filter discs and washed. The radioactivity bound to the filters is counted by liquid scintillation spectrophotometry.
The non-specific binding is determined in the presence of 500 nM of the benzomorphan non-selective compound Mr 2266.
The equilibrium dissociation constant […] and the maximum binding capacity (Bmax) are determined from the analysis of saturation curves, while the inhibition constant (Ki) is determined from the analysis of competition experiments (Hill 1910; Scatchard 1949; Cheng and Prusoff 1973; Gillan et al 1980).

T1 sequence (P41144 whole entry): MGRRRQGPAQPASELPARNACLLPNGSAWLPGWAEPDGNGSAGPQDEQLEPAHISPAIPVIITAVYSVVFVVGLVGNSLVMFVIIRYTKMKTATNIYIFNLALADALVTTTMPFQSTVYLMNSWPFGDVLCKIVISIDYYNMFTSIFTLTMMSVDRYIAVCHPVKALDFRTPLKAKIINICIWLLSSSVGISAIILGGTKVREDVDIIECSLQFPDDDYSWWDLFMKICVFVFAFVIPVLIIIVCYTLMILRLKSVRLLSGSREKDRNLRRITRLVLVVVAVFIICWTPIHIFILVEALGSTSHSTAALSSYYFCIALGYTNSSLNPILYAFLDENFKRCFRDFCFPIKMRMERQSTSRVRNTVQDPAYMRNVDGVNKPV

| SMILES | ED50 [1] | Ki (kappa brain receptor) |
| --- | --- | --- |
| CN(C)CC1CC(C)(C)CCN1C(=O)Cc1ccc2c(c1)CCCC2=O (racemic) [Example 5, (±)-1-[1-oxo-3,4-dihydro-(2H)-napht-6-yl]acetyl-2-dimethylaminomethyl-4,4-dimethyl piperidine hydrochloride] | 0.377 mg/kg | 65 nM |
| CCCN(C)C[C@@H]1CCCCN1C(=O)Cc1ccc2c(c1)CCCC2=O [Example 9, (2S)-1-[1-oxo-3,4-dihydro-(2H)-napht-6-yl]acetyl-2-(N-methyl-N-propyl)aminomethyl piperidine hydrochloride] | 0.221 mg/kg | 10 to 50 nM |
| CN(C)C[C@@H]1CC(C)(C)CCN1C(=O)Cc1ccc2c(c1)CCCC2=O [Example 15, (-)-1-[1-oxo-3,4-dihydro-(2H)-napht-6-yl]acetyl-2-dimethylaminomethyl-4,4-dimethylpiperidine D(-) tartrate] | 0.115 mg/kg | 22.9 nM |
| CN(C)CC1CCC(C)(C)CN1C(=O)Cc1ccc2c(c1)CCCC2=O (racemic) [Example 6, (±)-1-[1-oxo-3,4-dihydro-(2H)-napht-6-yl]acetyl-2-dimethylaminomethyl-5,5-dimethyl piperidine hydrochloride] | 0.641 mg/kg | 88.7 nM |
| C#CCN(C)C[C@@H]1CCCCN1C(=O)Cc1ccc2c(c1)CCCC2=O [Example 16, (2S)-1-[1-oxo-3,4-dihydro-(2H)-napht-6-yl]acetyl-2-(N-methyl-N-propargyl)aminomethyl piperidine hydrochloride] | 0.056 mg/kg | – |
| CCN(CC)C[C@@H]1CCCCN1C(=O)Cc1ccc2c(c1)CCCC2=O [Example 3, (2S)-1-[1-oxo-3,4-dihydro-(2H)-napht-6-yl]acetyl-2-diethylaminomethyl piperidine hydrochloride] | 0.427 mg/kg | – |
| CN(C[C@@H]1CCCCN1C(=O)Cc1ccc2c(c1)CCCC2=O)C1CC1 [Example 12, (2S)-1-[1-oxo-3,4-dihydro-(2H)-napht-6-yl]acetyl-2-(N-cyclopropyl-N-methyl)aminomethyl piperidine hydrochloride] | 0.141 mg/kg | 50 nM |
| C=CCN(C)C[C@@H]1CCCCN1C(=O)Cc1ccc2c(c1)CCCC2=O [Example 11, (2S)-1-[1-oxo-3,4-dihydro-(2H)-napht-6-yl]acetyl-2-(N-allyl-N-methyl)aminomethyl piperidine hydrochloride] | 0.13 mg/kg | ~50 nM |
| CN(C)C[C@@H]1CCCCN1C(=O)Cc1ccc2c(c1)CCCC2=O [Example 1, (2S)-1-[1-oxo-3,4-dihydro-(2H)-napht-6-yl]acetyl-2-dimethyl-aminomethyl piperidine hydrochloride] | 0.154 mg/kg | – |
| CN(C[C@@H]1CCCCN1C(=O)Cc1ccc2c(c1)CCCC2=O)C1CCCC1 [Example 18, (2S)-1-[1-oxo-3,4-dihydro-(2H)-napht-6-yl]acetyl-2-(N-cyclopentyl-N-methyl)aminomethyl piperidine hydrochloride .1/4 H2 O] | 0.21 mg/kg | – |
| CC(C)N(C)C[C@@H]1CCCCN1C(=O)Cc1ccc2c(c1)CCCC2=O [Example 10, (2S)-1-[1-oxo-3,4-dihydro-(2H)-napht-6-yl]acetyl-2-(N-methyl-N-isopropyl)aminomethyl piperidine hydrochloride emihydrate] | 0.078 mg/kg | 2.87 nM |
| CCN(C)C[C@@H]1CCCCN1C(=O)Cc1ccc2c(c1)CCCC2=O [Example 2, (2S)-1-[1-oxo-3,4-dihydro-(2H)-napht-6-yl]acetyl-2-(N-methyl-N-ethyl)aminomethyl piperidine hydrochloride] | 0.061 mg/kg | – |
| CN(C[C@@H]1CCCCN1C(=O)Cc1ccc2c(c1)CCCC2=O)C1CCC1 [Example 17, (2S)-1-[1-oxo-3,4-dihydro-(2H)-napht-6-yl]acetyl-2-(N-cyclobutyl-N-methyl)aminomethyl piperidine hydrochloride] | 0.127 mg/kg | – |
